# Where two headings read alike, the source gives them in different places.
# Assay: Noncompartmental pharmacokinetics after single oral doses in healthy volunteers
# Type: in vivo, human
# Settings: for half-life / Cmax / AUC / Tmax / CL renal: male, human; for AUC: read-out: AUC(0‐inf); for Tmax: read-out: Median tmax (range); for CL renal / Recovery unchanged: urine; for CL renal: read-out: Renal clearance (converted)
# From the text: Eligible subjects for the clinical study were healthy adult male volunteers aged 18‐45 years, with a body weight ranging between 55 and 95 kg and a body mass index of 18‐29 kg/m^2. Subjects with a history or evidence of clinically significant diseases or interfering conditions were excluded. Other exclusion criteria included: history of any clinically significant laboratory value including serology for hepatitis and HIV, relevant alcohol or drug abuse, recent acute illness, or use of any medication the week prior to study.
# Single oral doses of 50, 100, and 200 mg of sultiame (Ospolot®, immediate‐release coated tablets) were administered in fasting conditions, in open‐label, during periods 1, 2, and 3, respectively, at 4‐6 weeks interval. On each period, serial plasma and whole blood samples were collected predose, then at 15, 30 min, 1, 2, 3, 4, 5, 6, 8, 10, 24, 48, 72 168, 336, and 504 hours postdose. Plasma and whole blood samples were stored at − 80°C until analysis. Hematocrit was measured using a microhematocrit centrifuge machine (Haematokrit 200®, Hettich AG, Bäch, Switzerland) on each occasion to calculate intraerythrocytic concentrations. Urine PK samples were collected in 6 fractions, before dosing, from 0‐2, 2‐4, 4‐8, 8‐10, and 10‐24 hours postdose. Urine pH was measured on each fraction.
# The quantification of sultiame in whole blood, plasma, and urine was performed using a high‐performance liquid chromatography coupled to tandem triple quadrupole mass spectrometry (LC‐MS/MS) method developed and validated purposely for the trial. Briefly, 300 µL of methanol (MeOH) containing the internal standard (IS) sultiame‐D4 (Toronto Research Chemicals, Canada) was added to 100 µL of human plasma, hemolyzed whole blood, or hemolyzed red blood cells, for protein precipitation. Urine samples were processed similarly. After vortex, sonication for 30 seconds, and centrifugation steps, 250 µL of supernatant was transferred into a glass vial with insert, followed by dilution with 250 µL of pure water and a final vortex step, prior to LC‐MS/MS analysis. Chromatographic analyses were carried out on a XSelect HSS T3 column (Waters, Milford, MA, USA) using a water‐acetonitrile gradient over 5 minutes. Detection was performed with a triple quadrupole mass spectrometer (TSQ Quantum Ultra, ThermoFisher Scientific, Waltham, MA, USA) using the m/z transitions 289.0 → 225.1 for sultiame, and 293.0 → 229.1 for sultiame‐D4. Lower limits of detection and quantification of the method were 0.001 and 0.01 µg/mL, respectively, with a dynamic range extending up to 50 µg/mL. […] Deviations from nominal concentration (inaccuracy) of internal QCs were comprised within − 1.9 to + 11.7% over the calibration range. […] Metabolites, whose chemical structure is still elusive, were not determined.
# Erythrocytic concentrations (Cery) were deduced from whole blood and plasma measurements as: Cery=Cwhole blood-Cplasma·1-Ht/Ht
# Plasma, whole blood, and urine sultiame PK parameters were first computed for each volunteer using standard noncompartmental calculations with Stata® (version 13, StataCorp. 2013, Stata Statistical Software, College Station TX, USA).
# The area under the curve for a single dose (AUC0‐inf) was calculated using the log trapezoidal rule with extrapolation to infinity. The terminal rate constant ( λz ) was derived from a two‐exponential model curve. CL/F was calculated as the dose divided by AUC0‐inf, the half‐life (t1/2) as ln(2)/ λz , and V/F as (CL/F)/ λz .
# [1] = plasma, single oral dose 50 mg, n = 4, geometric mean (CV%)
# [2] = plasma, single oral dose 100 mg, n = 4, geometric mean (CV%)
# [3] = plasma, single oral dose 200 mg, n = 4, geometric mean (CV%)
# [4] = single oral dose 50 mg, n = 4, geometric mean (CV%)
# [5] = single oral dose 100 mg, n = 4, geometric mean (CV%)
# [6] = single oral dose 200 mg, n = 4, geometric mean (CV%)
# [7] = whole blood, single oral dose 50 mg, n = 4, geometric mean (CV%)
# [8] = whole blood, single oral dose 100 mg, n = 4, geometric mean (CV%)
# [9] = whole blood, single oral dose 200 mg, n = 4, geometric mean (CV%)
smiles,measurement,setting,value
NS(=O)(=O)c1ccc(N2CCCCS2(=O)=O)cc1 [Sultiame],increase in plasma Cmax for each doubling of dose,"between dose levels 50, 100, 200 mg",10 fold
same,increase in urinary recovery of unchanged sultiame,between the 50 and 200 mg doses,about 10 fold
same,half-life,"whole blood, oral, noncompartmental, highest observed, read-out: whole blood t1/2",≤ 312 h
same,Cmax,[1],20 ng/mL
same,AUC,[1],1.24 µg·h/mL
same,half-life,"plasma, single oral dose 50 mg, n = 4, geometric mean (CV%), read-out: t1/2 (converted)",50.8 h
same,Tmax,"plasma, single oral dose 50 mg, n = 4",7 h
same,Cmax,[2],180 ng/mL
same,AUC,[2],8.57 µg·h/mL
same,half-life,"plasma, single oral dose 100 mg, n = 4, geometric mean (CV%), read-out: t1/2 (converted)",90.9 h
same,Tmax,"plasma, single oral dose 100 mg, n = 4",2 h
same,Cmax,[3],1880 ng/mL
same,AUC,[3],24 µg·h/mL
same,half-life,"plasma, single oral dose 200 mg, n = 4, geometric mean (CV%), read-out: t1/2 (converted)",40 h
same,Tmax,"plasma, single oral dose 200 mg, n = 4",1.5 h
same,CL renal,[4],2.83 mL/min
same,CL renal,[5],2.33 mL/min
same,CL renal,[6],2.17 mL/min
same,Cmax,[7],7910 ng/mL
same,AUC,[7],3320 µg·h/mL
same,half-life,"whole blood, single oral dose 50 mg, n = 4, geometric mean (CV%), read-out: t1/2 (converted)",313 h
same,Tmax,"whole blood, single oral dose 50 mg, n = 4",3 h
same,Cmax,[8],15900 ng/mL
same,AUC,[8],4540 µg·h/mL
same,half-life,"whole blood, single oral dose 100 mg, n = 4, geometric mean (CV%), read-out: t1/2 (converted)",233 h
same,Tmax,"whole blood, single oral dose 100 mg, n = 4",5.01 h
same,Cmax,[9],17200 ng/mL
same,AUC,[9],4530 µg·h/mL
same,half-life,"whole blood, single oral dose 200 mg, n = 4, geometric mean (CV%), read-out: t1/2 (converted)",253 h
same,Tmax,"whole blood, single oral dose 200 mg, n = 4",2.5 h
same,CL/F,[1],40.4 (93) L/h
same,V/F,[1],2964 (21) L
same,CL/F,[2],11.7 (25) L/h
same,V/F,[2],1529 (21) L
same,CL/F,[3],8.3 (26) L/h
same,V/F,[3],480 (26) L
same,Recovery unchanged,[4],1.61 (17) %
same,Recovery unchanged,[5],5.24 (111) %
same,Recovery unchanged,[6],16.73 (36) %
same,CL/F,[7],0.015 (37) L/h
same,V/F,[7],6.8 (21) L
same,CL/F,[8],0.008 (34) L/h
same,V/F,[8],7.4 (21) L
same,CL/F,[9],0.044 (41) L/h
same,V/F,[9],16.2 (27) L
